The source of these data is ChEMBL document CHEMBL1201862, “PubChem BioAssay data set” (2004).

Test systems include UO-31; RXF 393; SN12C; MDA-MB-435; A549; MDA-MB-231; COLO 205; SK-MEL-28; MOLT-4; SW-620; SK-MEL-5; OVCAR-8; MCF7; SF-268; HL-60; Hs-578T; HCT-15; HCC 2998; LOX IMVI.
Common to all, as to assay: NCI-60 cell line screen, 48 h

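The compound was tested at five concentrations on cells cultured in 96-well plates, with a 48-hour exposure period. GI50 = concentration required for 50% inhibition of growth.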 The source made the active and inactive calls. No stated cut-off is given here; in the data, active = GI50 up to about 1.1 µM and inactive = higher. Bounds are passed on as bounds.

`CC(C)(C)C1(O)C=C(O)C(=O)N1NC(=O)c1ccccc1Nc1ccccc1` (stereo not given): the GI50 in the experiment on UO-31 is > 100 µM (inactive); with RXF 393, 60.5 µM (inactive); in the experiment with SN12C it was 60.5 µM (inactive); with MDA-MB-435, 40.6 µM (inactive); in the experiment on A549, > 100 µM (inactive); with MDA-MB-231 it was 42 µM (inactive). Further, the GI50 is 29 µM (inactive) in the experiment with COLO 205; 50.2 µM (inactive) in the experiment with SK-MEL-28; 2.4 µM (inactive) in the experiment with MOLT-4; 34 µM (inactive) in the experiment on SW-620; 35.4 µM (inactive) in the experiment on SK-MEL-5; 37.9 µM (inactive) with OVCAR-8. Besides, the GI50 is 33.3 µM (inactive) in the experiment with MCF7; 24.7 µM (inactive) with SF-268; 0.847 µM (active) in the experiment on HL-60; 87.1 µM (inactive) in the experiment with Hs-578T; 22.9 µM in the experiment with HCT-15; 19.2 µM (inactive) in the experiment with HCC 2998. Also, the GI50 in the experiment with LOX IMVI is 17.5 µM (inactive).

Consider `COc1cc(C2c3[nH]c4ccccc4c3[C@@H](Nc3ccc(C#N)cc3)[C@H]3COC(=O)N23)cc(OC)c1O` (stereo not given in full), for which the GI50 in the experiment on UO-31 is 0.802 µM (active); in the experiment with RXF 393, 1.16 µM (inactive); in the experiment on SN12C it was 0.186 µM (active); in the experiment on MDA-MB-435, 0.388 µM (active); in the experiment on A549 it was 0.113 µM (active); in the experiment on MDA-MB-231, 0.372 µM (active). For the same molecule, the GI50 in the experiment with COLO 205 is 0.644 µM (active); with SK-MEL-28, 0.395 µM (active); with MOLT-4 it was 0.0188 µM (active); in the experiment on SW-620 it was 0.122 µM (active); in the experiment with SK-MEL-5 it was 0.132 µM (active); in the experiment on OVCAR-8, 0.227 µM (active). The GI50 with MCF7 was 0.16 µM (active); with SF-268 it was 0.208 µM (active); with HL-60 it was 0.0399 µM (active); in the experiment with Hs-578T, 0.265 µM (active); in the experiment with HCT-15 it was 1.07 µM; in the experiment on HCC 2998, 0.239 µM (active). Also, the GI50 in the experiment with LOX IMVI is 0.0962 µM (active).

In the case of `Cc1ncc2c(=O)c3c(oc2n1)c1ccccc1n3Cc1ccccc1`, the GI50 in the experiment on UO-31, in the experiment on RXF 393, with SN12C, with MDA-MB-435, with A549 and in the experiment on MDA-MB-231 was > 100 µM (inactive) throughout. The GI50 in the experiment on COLO 205, with SK-MEL-28, in the experiment on MOLT-4, with SW-620, with SK-MEL-5 and in the experiment on OVCAR-8 was > 100 µM (inactive) throughout. Also, the GI50 in the experiment with MCF7 was > 100 µM (inactive); in the experiment with SF-268, > 100 µM (inactive); in the experiment on HL-60, > 100 µM (inactive); in the experiment on Hs-578T, > 100 µM (inactive); in the experiment on HCT-15, greater than 100 µM; with HCC 2998 it was > 100 µM (inactive). Moreover, in the experiment on LOX IMVI, the GI50 was > 100 µM (inactive).

As to `CC(O)CC(O)(C(F)(F)F)C(F)(F)F` (stereo not given), the GI50 with UO-31, in the experiment with RXF 393, in the experiment with SN12C, with MDA-MB-435, in the experiment on A549 and in the experiment with MDA-MB-231 was > 10 µM (inactive) in each case. Further, the GI50 in the experiment with COLO 205, with SK-MEL-28, with MOLT-4, in the experiment with SW-620, with SK-MEL-5 and with OVCAR-8 was > 10 µM (inactive) each time. Further, the GI50 with MCF7 was > 10 µM (inactive); in the experiment on SF-268, > 10 µM (inactive); with HL-60 it was > 10 µM (inactive); with Hs-578T, > 10 µM (inactive); in the experiment on HCT-15 it was greater than 10 µM; in the experiment with HCC 2998 it was > 10 µM (inactive). Also, the GI50 in the experiment with LOX IMVI is > 10 µM (inactive).

Turning to `O=c1c2ccccc2sc2ccccc12`, the GI50 in the experiment with UO-31, in the experiment with RXF 393, with SN12C, with MDA-MB-435, in the experiment with A549 and in the experiment on MDA-MB-231 was > 100 µM (inactive) throughout. Moreover, the GI50 in the experiment with COLO 205, with SK-MEL-28, with MOLT-4, with SW-620, in the experiment with SK-MEL-5 and with OVCAR-8 was > 100 µM (inactive) each time. For the same molecule, the GI50 with MCF7 is > 100 µM (inactive); in the experiment with SF-268, > 100 µM (inactive); in the experiment on HL-60, > 100 µM (inactive); with Hs-578T, > 100 µM (inactive); with HCT-15, greater than 100 µM; with HCC 2998, > 100 µM (inactive). In addition, in the experiment with LOX IMVI, the GI50 was > 100 µM (inactive).

On to `O=C(O)C1C2CCC(C2)C1c1ccccc1` (stereo not given), for which the GI50 with UO-31, in the experiment on RXF 393, in the experiment on SN12C, in the experiment with MDA-MB-435, with A549 and with MDA-MB-231 was > 100 µM (inactive) throughout. For the same molecule, the GI50 in the experiment on COLO 205, in the experiment on SK-MEL-28, in the experiment on MOLT-4, with SW-620, with SK-MEL-5 and in the experiment on OVCAR-8 was > 100 µM (inactive) each time. The GI50 with MCF7 is > 100 µM (inactive); in the experiment with SF-268 it was > 100 µM (inactive); in the experiment on HL-60, > 100 µM (inactive); with Hs-578T it was > 100 µM (inactive); in the experiment on HCT-15 it was greater than 100 µM; in the experiment on HCC 2998, > 100 µM (inactive). In addition, in the experiment on LOX IMVI, the GI50 is > 100 µM (inactive).

`CCOC(=O)NN(C(=O)OCC)C(=C(c1ccccc1)N1CCOCC1)N(NC(=O)OCC)C(=O)OCC`: the GI50 was 58.5 µM (inactive) in the experiment on UO-31; > 100 µM (inactive) with RXF 393; > 100 µM (inactive) in the experiment with SN12C; > 100 µM (inactive) in the experiment with MDA-MB-435; > 100 µM (inactive) in the experiment with A549; > 100 µM (inactive) with MDA-MB-231. Moreover, the GI50 with COLO 205, in the experiment with SK-MEL-28, in the experiment on MOLT-4, with SW-620, with SK-MEL-5 and with OVCAR-8 was > 100 µM (inactive) each time. In addition, the GI50 in the experiment with MCF7 was > 100 µM (inactive); in the experiment with SF-268 it was > 100 µM (inactive); in the experiment with HL-60 it was > 100 µM (inactive); in the experiment on Hs-578T, > 100 µM (inactive); in the experiment with HCT-15, greater than 100 µM; in the experiment with HCC 2998, > 100 µM (inactive). The GI50 with LOX IMVI is > 100 µM (inactive).

For the molecule `O=C(/C=C/c1ccsc1)c1ccco1`, the GI50 with UO-31 is 8.87 µM (inactive); in the experiment with RXF 393 it was 13.3 µM (inactive); with SN12C it was 14.6 µM (inactive); with MDA-MB-435, 20 µM (inactive); in the experiment with MDA-MB-231, 12.7 µM (inactive); in the experiment with COLO 205, 17.6 µM (inactive). The GI50 was 12.8 µM (inactive) with SK-MEL-28; 4.34 µM (inactive) with MOLT-4; 7.55 µM (inactive) in the experiment on SW-620; 15.4 µM (inactive) with SK-MEL-5; 11.7 µM (inactive) in the experiment on OVCAR-8; 2.21 µM (inactive) with MCF7. The GI50 was 17.1 µM (inactive) in the experiment on SF-268; 7.26 µM (inactive) in the experiment with HL-60; 9.4 µM (inactive) with Hs-578T; 7.24 µM with HCT-15; 12.2 µM (inactive) in the experiment with HCC 2998; 3.1 µM (inactive) with LOX IMVI.

Consider `Nc1ncnc2oc(-c3cccs3)nc12`, for which the GI50 in the experiment with UO-31, in the experiment on RXF 393, with SN12C, with MDA-MB-435, in the experiment with A549 and with MDA-MB-231 was > 100 µM (inactive) each time. For the same molecule, the GI50 in the experiment with COLO 205, in the experiment on SK-MEL-28, with SW-620, in the experiment on SK-MEL-5, in the experiment with OVCAR-8 and with MCF7 was > 100 µM (inactive) in each case. Further, the GI50 is > 100 µM (inactive) in the experiment on SF-268; > 100 µM (inactive) in the experiment with HL-60; > 100 µM (inactive) in the experiment with Hs-578T; greater than 100 µM in the experiment with HCT-15; > 100 µM (inactive) in the experiment with HCC 2998; > 100 µM (inactive) in the experiment on LOX IMVI.

In the case of `N#Cc1c(-c2ccc(Cl)cc2)c2c(n(C3OC(CO)C(O)C(O)C3O)c1=S)CCC2` (stereo not given), the GI50 was 38.7 µM (inactive) in the experiment with UO-31; 21.9 µM (inactive) in the experiment with RXF 393; 33.9 µM (inactive) in the experiment with SN12C; 19.8 µM (inactive) with MDA-MB-435; 31.7 µM (inactive) in the experiment with A549; 36.9 µM (inactive) in the experiment with MDA-MB-231. Also, the GI50 in the experiment with COLO 205 is 29.6 µM (inactive); with SK-MEL-28, 17.8 µM (inactive); in the experiment with MOLT-4 it was 10.4 µM (inactive); with SW-620, 20.4 µM (inactive); with SK-MEL-5, 13.3 µM (inactive); in the experiment with MCF7, 20.9 µM (inactive). For the same molecule, the GI50 in the experiment on SF-268 was 29 µM (inactive); in the experiment with HL-60 it was > 100 µM (inactive); with Hs-578T, 31.7 µM (inactive); in the experiment on HCT-15 it was 36.6 µM; with HCC 2998 it was 19.8 µM (inactive); in the experiment with LOX IMVI it was 16.9 µM (inactive).

Consider `COc1ccc(CCN2CCOCC2)cc1`, for which the GI50 with UO-31, in the experiment on RXF 393, in the experiment with SN12C, in the experiment on MDA-MB-435, in the experiment with A549 and in the experiment on MDA-MB-231 was > 100 µM (inactive) throughout. The GI50 with COLO 205, with SK-MEL-28, with MOLT-4, in the experiment on SW-620, in the experiment on SK-MEL-5 and in the experiment on MCF7 was > 100 µM (inactive) each time. The GI50 is > 100 µM (inactive) in the experiment on SF-268; > 100 µM (inactive) in the experiment with HL-60; > 100 µM (inactive) with Hs-578T; greater than 100 µM with HCT-15; > 100 µM (inactive) with HCC 2998; > 100 µM (inactive) in the experiment with LOX IMVI.
